Results reported in ChEMBL document CHEMBL3853350 (ACS Med Chem Lett, 2016).

Key:
[1] = target: PI3-kinase p110-delta/p85-alpha (Homo sapiens, UniProt O00329); assay: Inhibition of human recombinant full length N-terminal GST-tagged PI3K p110delta/p85alpha coexpressed in baculovirus infected Sf9 insect cells using diC8PIP2 as substrate incubated for 15 mins followed by substrate addition measured after 2 hr by ADP-Glo luminescence assay
[2] = target: Phosphatidylinositol 4,5-bisphosphate 3-kinase catalytic subunit gamma isoform (Homo sapiens, UniProt P48736); assay: biochemical
Sequence of Phosphatidylinositol 4,5-bisphosphate 3-kinase catalytic subunit gamma isoform (P48736 whole entry, canonical isoform): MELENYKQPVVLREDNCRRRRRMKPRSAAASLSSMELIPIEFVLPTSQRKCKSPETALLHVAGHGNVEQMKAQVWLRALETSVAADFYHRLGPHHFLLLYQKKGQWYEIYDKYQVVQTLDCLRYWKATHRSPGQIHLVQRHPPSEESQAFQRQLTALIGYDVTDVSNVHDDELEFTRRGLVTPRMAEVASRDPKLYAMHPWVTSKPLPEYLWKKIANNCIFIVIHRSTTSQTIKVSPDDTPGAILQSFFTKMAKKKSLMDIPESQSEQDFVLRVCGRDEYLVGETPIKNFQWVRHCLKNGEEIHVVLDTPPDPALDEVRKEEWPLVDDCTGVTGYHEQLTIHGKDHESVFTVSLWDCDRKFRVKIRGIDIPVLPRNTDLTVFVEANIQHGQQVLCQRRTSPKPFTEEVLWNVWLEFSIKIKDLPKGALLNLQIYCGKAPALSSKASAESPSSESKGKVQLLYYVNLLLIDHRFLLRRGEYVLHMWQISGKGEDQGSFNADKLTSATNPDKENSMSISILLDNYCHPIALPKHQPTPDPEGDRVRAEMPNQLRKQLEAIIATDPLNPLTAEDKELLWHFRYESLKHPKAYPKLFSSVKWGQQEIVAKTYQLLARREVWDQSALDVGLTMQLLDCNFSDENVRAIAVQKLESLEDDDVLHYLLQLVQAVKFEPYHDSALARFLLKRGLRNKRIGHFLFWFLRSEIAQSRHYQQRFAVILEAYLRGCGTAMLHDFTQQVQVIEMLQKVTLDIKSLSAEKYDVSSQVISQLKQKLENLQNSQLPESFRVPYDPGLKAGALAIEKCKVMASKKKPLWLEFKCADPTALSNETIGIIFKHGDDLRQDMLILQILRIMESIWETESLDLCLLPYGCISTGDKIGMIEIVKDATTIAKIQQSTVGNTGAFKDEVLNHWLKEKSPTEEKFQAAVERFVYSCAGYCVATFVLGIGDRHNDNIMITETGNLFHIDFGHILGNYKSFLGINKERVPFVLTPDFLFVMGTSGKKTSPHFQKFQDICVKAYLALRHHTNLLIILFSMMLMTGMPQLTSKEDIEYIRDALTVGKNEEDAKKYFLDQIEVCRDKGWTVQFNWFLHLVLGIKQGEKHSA
Description: Inhibition of human recombinant full length N-terminal His-tagged PI3Kgamma expressed in Sf9 insect cells using diC8PIP2 as substrate incubated for 15 mins followed by substrate addition measured after 2 hr by ADP-Glo luminescence assay

[3] = Half life in mouse hepatocytes at 1 uM by LC/MS analysis; type: ADME, cell-based, Hepatocyte

Sequence of PI3-kinase p110-delta/p85-alpha (P27986 whole entry, canonical isoform): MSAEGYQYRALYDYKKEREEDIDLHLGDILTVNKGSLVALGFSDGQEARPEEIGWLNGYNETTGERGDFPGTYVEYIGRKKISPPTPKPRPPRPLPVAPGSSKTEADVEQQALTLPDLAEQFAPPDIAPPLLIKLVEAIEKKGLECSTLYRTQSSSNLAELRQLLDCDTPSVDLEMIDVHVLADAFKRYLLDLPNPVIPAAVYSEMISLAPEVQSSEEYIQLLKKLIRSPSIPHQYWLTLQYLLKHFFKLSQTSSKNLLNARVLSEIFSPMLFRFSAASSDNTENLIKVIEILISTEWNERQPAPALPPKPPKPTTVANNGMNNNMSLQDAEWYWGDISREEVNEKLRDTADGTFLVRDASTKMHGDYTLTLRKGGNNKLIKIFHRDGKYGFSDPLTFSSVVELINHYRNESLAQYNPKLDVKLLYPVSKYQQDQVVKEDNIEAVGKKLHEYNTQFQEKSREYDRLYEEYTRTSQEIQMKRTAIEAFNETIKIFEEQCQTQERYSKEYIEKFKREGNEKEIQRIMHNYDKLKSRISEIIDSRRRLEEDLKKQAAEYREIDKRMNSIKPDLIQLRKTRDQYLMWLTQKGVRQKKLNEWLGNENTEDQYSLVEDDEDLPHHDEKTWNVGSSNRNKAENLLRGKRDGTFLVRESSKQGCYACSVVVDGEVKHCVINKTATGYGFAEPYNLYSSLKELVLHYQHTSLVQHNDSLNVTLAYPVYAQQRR
Sequence of PI3-kinase p110-delta/p85-alpha (O00329 whole entry, canonical isoform): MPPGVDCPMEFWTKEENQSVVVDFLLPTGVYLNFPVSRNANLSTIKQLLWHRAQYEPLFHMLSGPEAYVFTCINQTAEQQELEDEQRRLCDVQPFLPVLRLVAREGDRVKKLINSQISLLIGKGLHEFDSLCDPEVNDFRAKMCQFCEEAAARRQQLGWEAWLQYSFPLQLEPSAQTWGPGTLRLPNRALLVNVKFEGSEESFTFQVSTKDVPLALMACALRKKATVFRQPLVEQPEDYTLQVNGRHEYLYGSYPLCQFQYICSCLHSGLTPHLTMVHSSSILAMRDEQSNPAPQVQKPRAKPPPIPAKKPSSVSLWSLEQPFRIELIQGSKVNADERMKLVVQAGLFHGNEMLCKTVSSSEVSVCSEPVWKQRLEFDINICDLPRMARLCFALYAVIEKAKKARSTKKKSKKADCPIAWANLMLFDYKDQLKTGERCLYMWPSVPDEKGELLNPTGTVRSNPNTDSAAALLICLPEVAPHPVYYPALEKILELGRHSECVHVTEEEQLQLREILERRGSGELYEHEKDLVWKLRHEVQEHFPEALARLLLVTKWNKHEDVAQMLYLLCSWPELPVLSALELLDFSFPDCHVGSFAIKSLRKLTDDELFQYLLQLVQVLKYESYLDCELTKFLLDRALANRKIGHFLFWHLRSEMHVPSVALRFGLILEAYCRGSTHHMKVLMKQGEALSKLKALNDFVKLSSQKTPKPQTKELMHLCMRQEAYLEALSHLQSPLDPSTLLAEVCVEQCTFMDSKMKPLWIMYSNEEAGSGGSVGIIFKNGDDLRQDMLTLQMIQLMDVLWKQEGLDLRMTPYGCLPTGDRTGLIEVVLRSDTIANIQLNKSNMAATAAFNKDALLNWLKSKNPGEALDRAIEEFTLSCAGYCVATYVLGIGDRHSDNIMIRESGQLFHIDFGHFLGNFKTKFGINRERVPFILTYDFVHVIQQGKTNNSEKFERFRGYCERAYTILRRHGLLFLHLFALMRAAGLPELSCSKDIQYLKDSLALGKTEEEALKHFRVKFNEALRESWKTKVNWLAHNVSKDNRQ

## C[C@H](NC(=O)c1c(N)nn2cccnc12)c1cc2cccc(C#N)c2c(=O)n1-c1ccccc1
[1]
  IC50: 3100 nM
[2]
  IC50: 240 nM

## C/C=C/c1cccc2cc([C@H](C)NC(=O)c3c(N)nn4cccnc34)n(-c3ccccc3)c(=O)c12
[1]
  IC50: > 10000 nM
[2]
  IC50: 330 nM

## C[C@H](NC(=O)c1c(N)nn2cccnc12)c1cc2cccc(F)c2c(=O)n1-c1ccccc1
[1]
  IC50: 530 nM
[2]
  IC50: 50 nM

## Nc1nn2cccnc2c1C(=O)NCc1cc2cccc(Cl)c2c(=O)n1-c1ccccc1
[1]
  IC50: > 10000 nM
[2]
  IC50: > 7000 nM

## CNc1cccc2cc([C@H](C)NC(=O)c3c(N)nn4cccnc34)n(-c3ccccc3)c(=O)c12
[1]
  IC50: > 10000 nM
[2]
  IC50: 1100 nM

## CC[C@H](NC(=O)c1c(N)nn2cccnc12)c1cc2cccc(Cl)c2c(=O)n1-c1ccccc1
[1]
  IC50: 600 nM
[2]
  IC50: 150 nM

## C[C@H](NC(=O)c1cnn2cccnc12)c1cc2cccc(Cl)c2c(=O)n1-c1ccccc1
[1]
  IC50: 800 nM
[2]
  IC50: 400 nM

## C[C@H](NC(=O)c1c(N)nn2cccnc12)c1cc2cccc(C#Cc3cccnc3)c2c(=O)n1-c1ccccc1
[1]
  IC50: > 6000 nM
[3]
  half-life at 1 µM: 1.7 h
[2]
  IC50: 110 nM

## C[C@H](NC(=O)c1c(N)nn2cccnc12)c1cc2cccc(C#Cc3nccs3)c2c(=O)n1-c1ccccc1
[1]
  IC50: > 10000 nM
[3]
  half-life at 1 µM: 0.45 h
[2]
  IC50: 360 nM

## C[C@H](NC(=O)c1c(N)nn2cccnc12)c1cc2cccc(C#Cc3cncs3)c2c(=O)n1-c1ccccc1
[1]
  IC50: > 8000 nM
[3]
  half-life at 1 µM: 0.717 h
[2]
  IC50: 110 nM

## C[C@H](NC(=O)c1c(N)nn2cccnc12)c1cc2cccc(C#Cc3cscn3)c2c(=O)n1-c1ccccc1
[1]
  IC50: 4800 nM
[3]
  half-life at 1 µM: 4.5 h
[2]
  IC50: 75 nM

## C[C@H](NC(=O)c1c(N)nn2cccnc12)c1cc2cccc(C#Cc3ccncc3)c2c(=O)n1-c1ccccc1
[1]
  IC50: > 9000 nM
[3]
  half-life at 1 µM: 0.85 h
[2]
  IC50: 350 nM

## C[C@H](NC(=O)c1c(N)nn2cccnc12)c1cc2cccc(C#Cc3ccn(C)n3)c2c(=O)n1-c1ccccc1
[1]
  IC50: > 9000 nM
[3]
  half-life at 1 µM: 4.18 h
[2]
  IC50: 100 nM

## CC#Cc1cccc2cc([C@H](C)NC(=O)c3c(N)nn4cccnc34)n(-c3ccccc3)c(=O)c12
[1]
  IC50: > 1000 nM
[2]
  IC50: 25 nM

## C[C@H](NC(=O)c1c(N)nn2cccnc12)c1cc2cccc(N(C)C)c2c(=O)n1-c1ccccc1
[1]
  IC50: > 10000 nM
[2]
  IC50: 1100 nM

## C[C@H](NC(=O)c1cncc2cccnc12)c1cc2cccc(Cl)c2c(=O)n1-c1ccccc1
[1]
  IC50: 900 nM
[2]
  IC50: 1000 nM

## COc1cccc2cc([C@H](C)NC(=O)c3c(N)nn4cccnc34)n(-c3ccccc3)c(=O)c12
[1]
  IC50: > 9000 nM
[2]
  IC50: 1000 nM

## C#Cc1cccc2cc([C@H](C)NC(=O)c3c(N)nn4cccnc34)n(-c3ccccc3)c(=O)c12
[1]
  IC50: 700 nM
[2]
  IC50: 14 nM

## C[C@H](NC(=O)c1c(N)nn2cccnc12)c1cc2cccc(Cl)c2c(=O)n1-c1ccccc1
[1]
  IC50: 400 nM

## C[C@H](NC(=O)c1c(N)nn2cccnc12)c1cc2cccc(C#Cc3ccccc3)c2c(=O)n1-c1ccccc1
[1]
  IC50: 140 nM
[2]
  IC50: 280 nM

## C[C@H](NC(=O)c1c(N)ncc2ccccc12)c1cc2cccc(Cl)c2c(=O)n1-c1ccccc1
[1]
  IC50: > 10000 nM
[2]
  IC50: > 10000 nM

## C[C@H](NC(=O)c1c(N)nn2cccnc12)c1cc2cccc(C#Cc3ccccn3)c2c(=O)n1-c1ccccc1
[1]
  IC50: > 9600 nM
[3]
  half-life at 1 µM: 1.2 h
[2]
  IC50: 170 nM

## Cc1cccc2cc([C@H](C)NC(=O)c3c(N)nn4cccnc34)n(-c3ccccc3)c(=O)c12
[1]
  IC50: 2600 nM
[2]
  IC50: 110 nM

## C[C@H](NC(=O)c1c(N)ncc2cccnc12)c1cc2cccc(Cl)c2c(=O)n1-c1ccccc1
[1]
  IC50: 320 nM
[2]
  IC50: 60 nM

## C[C@H](NC(=O)c1c(N)nn2ccccc12)c1cc2cccc(Cl)c2c(=O)n1-c1ccccc1
[1]
  IC50: 2600 nM
